Measured values: US20040030106A1, “Novel compounds and process” (priority 2000, published 2004)
Several values for one entry are separate records, joined by “and”; a condition that tells them apart may be missing. Equal values may be shown once. Bridge positions count the residues as written; N and C are the ends. Ends that are not written are not given here.

Legend:
[1] = system: P15 peptides; assay: Anti-peptide antibody response after immunisation of mice with cyclic P15-BSA conjugates; assay type: in vivo; conditions: 10 mice per group, 25 μg conjugate IM with AS2 adjuvant on days 0, 14, 28; 14 days post III
Description: (§1) The P15 peptide conjugates produced in Example 1 were also used to immunise 10 mice per group,intramuscularly (IM) on days 0, 14 and 28 with 25 μg of conjugate mixed with AS2 adjuvant (oil/water emulsion, 3D-MPL, QS21). Very homogenous responses were obtained with all cyclic P15 peptides.

[2] = system: IgE; assay: Anti-IgE antibody response after immunisation of mice with cyclic P15-BSA conjugates, by comparison with mAb 11; assay type: in vivo; conditions: mAb11 equivalents, 25 μg conjugate IM with AS2 adjuvant on days 0, 14, 28, 14 days post III
Description: as §1

[3] = system: P14 peptides; assay: IgG anti-peptide ELISA after immunisation of mice with P14 peptide-BSA conjugates; assay type: in vivo; conditions: 25 μg conjugate IM with AS2 adjuvant on days 0, 14, 28, day 14 post III; for IgG anti-peptide responses (midpoint titre), individual mice: one value per mouse
Description: To evaluate the immunogenicity of the conjugates produced in Example 1, 10 mice per group were immunised intramuscularly (IM) on days 0, 14 and 28 with 25 μg of conjugate mixed with AS2 adjuvant (oil/water emulsion, 3D-MPL, QS21). The serologic response for the P14 peptides was analysed by ELISA on days 28 and 42 (14 post III).

[4] = system: human basophils; assay: Human basophil blocking assay: inhibition of Lol p I triggered histamine release; assay type: cell-based; conditions: human basophils from allergic donors, triggered with allergen (Lol p I)
Source text: The degree of inhibition of histamine release can be calculated using the formula:
% inhibition=1−(histamine release from test sample treated cells*)×100(histamine release from antigen stimulated cells*)
Values corrected for spontaneous release.

[5] = system: human basophils
Description: Blood was collected by venepuncture from 4 allergic donors into tubes containing 0.1 volumes 2.7% EDTA, pH 7.0. It is then diluted 1/2 with an equal volume of HBH medium containing 0.1% human serum albumin (HBH/HSA). The resulting cell suspension was layered over 50% volume Ficoll-Paque and centrifuged at 400 g for 30 minutes at room temperature. The peripheral blood mononuclear cell (PBMC) layer at the interface is collected and the pellet is discarded. The cells are washed once in HBH/HSA, counted, and re-suspended in HBH/HSA at a cell density of 2.0×10^6 per ml. 100 μl cell suspension are added to wells of a V-bottom 96-well plate containing 100 μl diluted test sample or vaccine induced antibody. Each test sample is tested at a range of dilutions with 6 wells for each dilution. Well contents are mixed briefly using a plate shaker, before incubation at 37° C. for 30 minutes with shaking at 120 rpm.
For each serum dilution 3 wells are triggered by addition of 10 μl Lol p I extract (final dilution 1/10000) and 3 wells have 10 μl HBH/HSA added for assessment of anaphylactogenicity. Well contents are again mixed briefly using a plate shaker, before incubation at 37° C. for a further 30 minutes with shaking at 120 rpm. Incubations are terminated by centrifugation at 500 g for 5 min. Supernatants are removed for histamine assay using a commercially available histamine EIA measuring kit (Immunotech). Control wells containing cells without test sample are routinely included to determine spontaneous and triggered release. Wells containing cells ±0.05% Igepal detergent are also included to determine total cell histarnine.
Histamine release due to test samples=% histamine release from test sample treated cells−% spontaneous histamine release.

## Ac-CLEDGQVMDCGSK-NH2 (disulfide 1-10 (inferred)) [P15b, 325 conjugated to BSA]
[1]
  anti-peptide (midpoint titre), average: 11169
  anti-peptide (midpoint titre), geomean: 8385
[2]
  anti-IgE (μg/ml or mAB11 equivalent), average: 70 µg/mL
  anti-IgE (μg/ml or mAB11 equivalent), geomean: 35 µg/mL

## Ac-CWPGSRDRRCGSK-NH2 (disulfide 1-10 (inferred)) [P14I]
[3]
  IgG anti-peptide responses (midpoint titre), Average: 48146
  IgG anti-peptide responses (midpoint titre), geomean: 45336
  IgG anti-peptide responses (midpoint titre), individual mice: 85882 and 28989 and 39268 and 39460 and 57276 and 50834 and 54664 and 62263 and 36621 and 26202

## Ac-CLEDGQVMDVDLCGSK-NH2 (disulfide 1-13 (inferred)) [P15c]
[1]
  anti-peptide (midpoint titre), average: 66452
  anti-peptide (midpoint titre), geomean: 65685
[2]
  anti-IgE (μg/ml or mAB11 equivalent), average: 200 µg/mL
  anti-IgE (μg/ml or mAB11 equivalent), geomean: 189 µg/mL
[4]
  histamine release blocking activity of the induced antiserum: inhibited histamine release
[5]
  anaphylactogenicity of the induced antiserum: without the antiserum being anaphylactogenic

## Ac-CLEDGQVMDVDLCPREAAEGDK-NH2 [P15d]
[1]
  anti-peptide (midpoint titre), average: 35118
  anti-peptide (midpoint titre), geomean: 32801
[2]
  anti-IgE (μg/ml or mAB11 equivalent), average: 174 µg/mL
  anti-IgE (μg/ml or mAB11 equivalent), geomean: 111 µg/mL
[4]
  histamine release blocking activity of the induced antiserum: inhibited histamine release
[5]
  anaphylactogenicity of the induced antiserum: without the antiserum being anaphylactogenic

## Ac-CPEWPGSRDRCGSK-NH2 (disulfide 1-11 (inferred)) [P14f]
[3]
  IgG anti-peptide responses (midpoint titre), Average: 77521
  IgG anti-peptide responses (midpoint titre), geomean: 73541
  IgG anti-peptide responses (midpoint titre), individual mice: 67086 and 101502 and 36031 and 74838 and 56496 and 51304 and 92885 and 92868 and 113041 and 89155

## ACPEWPGSRDRCTLAG-NH2 (disulfide 2-12 (inferred)) [P14e]
[3]
  IgG anti-peptide responses (midpoint titre), Average: 3200
  IgG anti-peptide responses (midpoint titre), geomean: 3051
  IgG anti-peptide responses (midpoint titre), individual mice: 3151 and 2345 and 3224 and 3051 and 2873 and 4647 and 1461 and 4227 and 3821

## Ac-CLEDGQVMDVDLCGGSSGGK-NH2 (disulfide 1-13 (inferred)) [P15e]
[1]
  anti-peptide (midpoint titre), average: 57432
  anti-peptide (midpoint titre), geomean: 55207
[2]
  anti-IgE (μg/ml or mAB11 equivalent), average: 129 µg/mL
  anti-IgE (μg/ml or mAB11 equivalent), geomean: 113 µg/mL
[4]
  histamine release blocking activity of the induced antiserum: inhibited histamine release
[5]
  anaphylactogenicity of the induced antiserum: without the antiserum being anaphylactogenic
